Source: PubChem BioAssay (NCI)
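Dose response: 5 concentrations. Exposure: 48 h. Format: 96-well plates. Endpoint: linear interpolation; highest concentration if not reached. Abbreviation: GI50, concentration required for 50% inhibition of growth. TGI denotes the concentration required for complete inhibition of growth.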

How the values were obtained:
Assay in all cases: NCI tumour cell line growth inhibition, 48 h
SR leukemia = system: SR leukemia
OVCAR-5 ovarian = system: OVCAR-5 ovarian
SW-620 colon = system: SW-620 colon
MDA-MB-435 = system: MDA-MB-435
CAKI-1 renal = system: CAKI-1 renal
HOP-92 NSCLC = system: HOP-92 NSCLC
SK-OV-3 ovarian = system: SK-OV-3 ovarian
IGROV1 ovarian = system: IGROV1 ovarian
KM12 colon = system: KM12 colon
SF-295 CNS = system: SF-295 CNS

ClC1=C(Cl)C2OC3C=CCC3OC2C(Cl)=C1Cl (stereo not given)
TGI (SR leukemia): > 100 µM
TGI (OVCAR-5 ovarian): > 100 µM
TGI (SW-620 colon): > 100 µM
TGI (MDA-MB-435): > 100 µM
TGI (CAKI-1 renal): > 100 µM
TGI (HOP-92 NSCLC): > 100 µM
TGI (SK-OV-3 ovarian): > 100 µM
TGI (IGROV1 ovarian): > 100 µM
TGI (KM12 colon): > 100 µM
TGI (SF-295 CNS): > 100 µM

CCC(C)N1CN(c2ccccc2)C2(CCN(CCCC3(c4ccc(F)cc4)OCCO3)CC2)C1=O (stereo not given)
TGI (SR leukemia): 23.5 µM
TGI (OVCAR-5 ovarian): 22.4 µM
TGI (SW-620 colon): 28.8 µM
TGI (MDA-MB-435): 45.6 µM
TGI (CAKI-1 renal): > 68.3 µM
TGI (HOP-92 NSCLC): 0.959 µM
TGI (SK-OV-3 ovarian): 56 µM
TGI (IGROV1 ovarian): 30.7 µM
TGI (KM12 colon): > 50.6 µM
TGI (SF-295 CNS): 10.6 µM

Cn1c(-c2c(C3=CC(=O)N(c4ccccc4)C3=O)c3ccccc3n2C)cc2ccccc21
TGI (SR leukemia): > 100 µM
TGI (OVCAR-5 ovarian): > 100 µM
TGI (SW-620 colon): > 100 µM
TGI (MDA-MB-435): > 100 µM
TGI (CAKI-1 renal): > 100 µM
TGI (HOP-92 NSCLC): > 100 µM
TGI (SK-OV-3 ovarian): > 100 µM
TGI (IGROV1 ovarian): > 100 µM
TGI (KM12 colon): > 100 µM
TGI (SF-295 CNS): > 100 µM

COc1ccc(/C=C2\OC(=O)C(Cl)=C2c2ccc(OC)c(Cl)c2)cc1
TGI (SR leukemia): > 100 µM
TGI (OVCAR-5 ovarian): 90.5 µM
TGI (SW-620 colon): > 100 µM
TGI (MDA-MB-435): 59.9 µM
TGI (CAKI-1 renal): 56.8 µM
TGI (HOP-92 NSCLC): 46.1 µM
TGI (SK-OV-3 ovarian): > 100 µM
TGI (IGROV1 ovarian): > 100 µM
TGI (KM12 colon): > 100 µM
TGI (SF-295 CNS): 67.6 µM

COC(=O)/C=C\C(C#N)(C#N)N=Cc1ccc(Br)cc1
TGI (SR leukemia): > 100 µM
TGI (OVCAR-5 ovarian): 35.8 µM
TGI (SW-620 colon): > 22.4 µM
TGI (MDA-MB-435): 22.4 µM
TGI (CAKI-1 renal): 5.47 µM
TGI (HOP-92 NSCLC): 6.34 µM
TGI (SK-OV-3 ovarian): 33.6 µM
TGI (IGROV1 ovarian): 37 µM
TGI (KM12 colon): 29.3 µM
TGI (SF-295 CNS): 34.7 µM

COC(=O)C(CNC(=O)/C=C/c1ccc(OC(C)=O)c(OC(C)=O)c1)NC(=O)/C=C/c1ccc(OC(C)=O)c(OC(C)=O)c1 (stereo not given)
TGI (SR leukemia): > 100 µM
TGI (OVCAR-5 ovarian): > 100 µM
TGI (SW-620 colon): > 100 µM
TGI (MDA-MB-435): > 100 µM
TGI (CAKI-1 renal): > 100 µM
TGI (HOP-92 NSCLC): > 100 µM
TGI (SK-OV-3 ovarian): > 100 µM
TGI (IGROV1 ovarian): > 100 µM
TGI (KM12 colon): > 100 µM
TGI (SF-295 CNS): > 100 µM

CC(C)=C=CP(=O)(O)c1ccccc1
TGI (SR leukemia): > 100 µM
TGI (OVCAR-5 ovarian): > 100 µM
TGI (SW-620 colon): > 100 µM
TGI (MDA-MB-435): > 100 µM
TGI (CAKI-1 renal): > 100 µM
TGI (HOP-92 NSCLC): > 100 µM
TGI (SK-OV-3 ovarian): > 100 µM
TGI (IGROV1 ovarian): > 100 µM
TGI (KM12 colon): > 100 µM
TGI (SF-295 CNS): > 100 µM

Cc1oc2nc(N(C)C)n3cnnc3c2c1C
TGI (SR leukemia): > 100 µM
TGI (OVCAR-5 ovarian): > 100 µM
TGI (SW-620 colon): > 100 µM
TGI (MDA-MB-435): > 100 µM
TGI (CAKI-1 renal): > 100 µM
TGI (HOP-92 NSCLC): > 100 µM
TGI (SK-OV-3 ovarian): > 100 µM
TGI (IGROV1 ovarian): > 100 µM
TGI (KM12 colon): > 100 µM
TGI (SF-295 CNS): > 100 µM

Nc1ccn(CC(O)c2cc3ccccc3[nH]2)c(=O)n1 (stereo not given)
TGI (SR leukemia): > 100 µM
TGI (OVCAR-5 ovarian): > 100 µM
TGI (SW-620 colon): > 100 µM
TGI (MDA-MB-435): > 100 µM
TGI (CAKI-1 renal): > 100 µM
TGI (HOP-92 NSCLC): > 100 µM
TGI (SK-OV-3 ovarian): > 100 µM
TGI (IGROV1 ovarian): > 100 µM
TGI (KM12 colon): > 100 µM
TGI (SF-295 CNS): > 100 µM

O=C(CN1CCN(c2ccccn2)CC1)N1CCCn2c1nc1ccccc1c2=O
TGI (SR leukemia): > 100 µM
TGI (OVCAR-5 ovarian): > 100 µM
TGI (SW-620 colon): > 100 µM
TGI (MDA-MB-435): > 100 µM
TGI (CAKI-1 renal): > 100 µM
TGI (HOP-92 NSCLC): > 100 µM
TGI (SK-OV-3 ovarian): > 100 µM
TGI (IGROV1 ovarian): > 100 µM
TGI (KM12 colon): > 100 µM
TGI (SF-295 CNS): > 100 µM

COc1ccc(S(=O)(=O)Nc2cc(Sc3cccc4cccnc34)c(O)c3ccccc23)cc1
GI50 (SR leukemia): 0.358 µM
TGI (SR leukemia): > 100 µM
GI50 (OVCAR-5 ovarian): 2.83 µM
TGI (OVCAR-5 ovarian): 12.7 µM
GI50 (SW-620 colon): 0.815 µM
TGI (SW-620 colon): 3.62 µM
GI50 (MDA-MB-435): 2.2 µM
TGI (MDA-MB-435): 13.2 µM
GI50 (CAKI-1 renal): 2.53 µM
TGI (CAKI-1 renal): 10.5 µM
GI50 (HOP-92 NSCLC): 1.55 µM
TGI (HOP-92 NSCLC): 5.93 µM
GI50 (SK-OV-3 ovarian): 3.59 µM
TGI (SK-OV-3 ovarian): 14.4 µM
GI50 (IGROV1 ovarian): 1.09 µM
TGI (IGROV1 ovarian): 7.2 µM
GI50 (KM12 colon): 1.64 µM
TGI (KM12 colon): 15 µM
GI50 (SF-295 CNS): 2.23 µM
TGI (SF-295 CNS): 13.3 µM
